From ChEMBL document CHEMBL3044752, “Isobutyl amides--potent compounds for controlling Diatraea saccharalis” (2009) come the findings set out here.

This test deals with Diatraea saccharalis. Description: Insecticidal activity against fourth-instar Diatraea saccharalis assessed as larval mortality measured per insect after 24 hr exposure. In kind it is functional.

As to `CC(C)CNC(=O)/C=C/CCc1ccc2c(c1)OCO2` [4,5-DIHYDROPIPERLONGUMININE], the LD50 came to 92.83 µg and the LD90 was 176.5 µg.
For the molecule `CCCCC/C=C/C=C/C(=O)NCC(C)C` [PELLITORIN], the LD50 came to 91.19 µg and the LD90 turned out to be 184.56 µg.
